Test results published in ChEMBL document CHEMBL3044783, “Effects of pyrrolizidine alkaloids on the performance of plant-parasitic and free-living nematodes” (Pest Manag Sci, 2009).
In brackets after ≈: the same amount, converted by molar mass. Activity calls are given as the source filed them. The calls are words filed in the database; no cut-off is given here.

How the values were obtained:
[1] = system: Heterodera schachtii; experiment: Nematicidal activity against juvenile stage of Heterodera schachtii assessed as inhibition of mobility after 168 hr; format: functional
[2] = system: Meloidogyne incognita; experiment: Nematicidal activity against juvenile stage of Meloidogyne incognita (root-knot nematode) assessed as inhibition of mobility after 168 hr; format: functional
[3] = system: Heterodera schachtii; experiment: Nematicidal activity against juvenile stage of Heterodera schachtii assessed as inhibition of mobility incubated for 168 hr followed by compound wash out measured after 24 hr; format: functional
[4] = system: Meloidogyne incognita; experiment: Nematicidal activity against juvenile stage of Meloidogyne incognita (root-knot nematode) assessed as inhibition of mobility incubated for 168 hr followed by compound wash out measured after 24 hr; format: functional
[5] = system: Meloidogyne incognita; experiment: Nematicidal activity against juvenile stage of Meloidogyne incognita (root-knot nematode) assessed as inhibition of mobility after 20 hr; format: functional
[6] = system: Heterodera schachtii; experiment: Nematicidal activity against juvenile stage of Heterodera schachtii assessed as inhibition of mobility after 20 hr; format: functional
[7] = Stability of the compound assessed as apperance of new pyrrolizidine alkaloids at 5 mg/mL after 24 to 168 hr by thin layer chromatographic analysis under UV light and hot temperature; format: physicochemical
[8] = system: Rhabditis sp.; experiment: Repellent activity against juvenile stage of Rhabditis sp. at 1 mg/mL after 20 hr by stereomicroscopic analysis (reference value: 48%); format: functional
[9] = Stability of the compound assessed as apperance of new pyrrolizidine alkaloids at 5 mg/mL after 24 to 168 hr by thin layer chromatographic analysis under hot temperature; format: physicochemical
[10] = system: Meloidogyne incognita; experiment: Repellent activity against juvenile stage of Meloidogyne incognita (root-knot nematode) at 0.1 mg/mL after 40 hr by stereomicroscopic analysis (reference value: 51%); format: functional
[11] = system: Rhabditis sp.; experiment: Nematicidal activity against juvenile stage of Rhabditis sp. assessed as inhibition of mobility after 20 hr; format: functional, organism-based
[12] = Stability of the compound assessed as apperance of pyrroles at 5 mg/mL after 24 to 168 hr by thin layer chromatographic analysis under cold temperature; format: physicochemical
[13] = Stability of the compound assessed as apperance of new pyrrolizidine alkaloids at 5 mg/mL after 24 to 168 hr by thin layer chromatographic analysis under cold temperature; format: physicochemical
[14] = Stability of the compound assessed as apperance of new pyrrolizidine alkaloids at 5 mg/mL after 24 to 168 hr by thin layer chromatographic analysis under UV light and cold temperature; format: physicochemical
[15] = system: Rhabditis sp.; experiment: Repellent activity against juvenile stage of Rhabditis sp. at 0.1 mg/mL after 40 hr by stereomicroscopic analysis (reference value: 50%); format: functional
[16] = system: Phasmarhabditis hermaphrodita; experiment: Nematicidal activity against juvenile stage of Phasmarhabditis hermaphrodita of assessed as inhibition of mobility after 20 hr; format: functional, organism-based
[17] = system: Meloidogyne incognita; experiment: Repellent activity against juvenile stage of Meloidogyne incognita (root-knot nematode) at 1 mg/mL after 40 hr by stereomicroscopic analysis (reference value: 51%); format: functional
[18] = system: Rhabditis sp.; experiment: Repellent activity against juvenile stage of Rhabditis sp. at 1 mg/mL after 40 hr by stereomicroscopic analysis (reference value: 50%); format: functional
[19] = Stability of the compound assessed as conversion of N-oxide to free base at 5 mg/mL after 24 to 168 hr by thin layer chromatographic analysis under cold temperature; format: physicochemical
[20] = system: Rhabditis sp.; experiment: Nematicidal activity against juvenile stage of Rhabditis sp. assessed as inhibition of mobility after 168 hr; format: functional
[21] = system: Pratylenchus penetrans; experiment: Nematicidal activity against juvenile stage of Pratylenchus penetrans assessed as inhibition of mobility after 20 hr; format: functional
[22] = Stability of the compound assessed as conversion of N-oxide to free base at 5 mg/mL after 24 to 168 hr by thin layer chromatographic analysis under UV light and cold temperature; format: physicochemical
[23] = system: Rhabditis sp.; experiment: Repellent activity against juvenile stage of Rhabditis sp. at 0.1 mg/mL after 20 hr by stereomicroscopic analysis (reference value: 48%); format: functional
[24] = Stability of the compound assessed as apperance of pyrroles at 5 mg/mL after 24 to 168 hr by thin layer chromatographic analysis under UV light and hot temperature; format: physicochemical
[25] = system: Meloidogyne incognita; experiment: Repellent activity against juvenile stage of Meloidogyne incognita (root-knot nematode) at 0.1 mg/mL after 20 hr by stereomicroscopic analysis (reference value: 50%); format: functional
[26] = system: Meloidogyne incognita; experiment: Ovicidal activity against Meloidogyne incognita (root-knot nematode) assessed as egg hatching at 1 mg/mL after 336 hr (reference value: 54%); format: functional
[27] = system: Meloidogyne incognita; experiment: Repellent activity against juvenile stage of Meloidogyne incognita (root-knot nematode) at 1 mg/mL after 20 hr by stereomicroscopic analysis (reference value: 50%); format: functional
[28] = Stability of the compound assessed as apperance of pyrroles at 5 mg/mL after 24 to 168 hr by thin layer chromatographic analysis under UV light and cold temperature; format: physicochemical
[29] = system: Phasmarhabditis hermaphrodita; experiment: Nematicidal activity against juvenile stage of Phasmarhabditis hermaphrodita of assessed as inhibition of mobility incubated for 168 hr followed by compound wash out measured after 24 hr; format: functional; conditions: Pellioditis hermaphrodita
[30] = Stability of the compound assessed as apperance of pyrroles at 5 mg/mL after 24 to 168 hr by thin layer chromatographic analysis under hot temperature; format: physicochemical
[31] = system: Phasmarhabditis hermaphrodita; experiment: Nematicidal activity against juvenile stage of Phasmarhabditis hermaphrodita of assessed as inhibition of mobility after 168 hr; format: functional
[32] = Stability of the compound assessed as conversion of N-oxide to free base at 5 mg/mL after 24 to 168 hr by thin layer chromatographic analysis under hot temperature; format: physicochemical
[33] = system: Pratylenchus penetrans; experiment: Nematicidal activity against juvenile stage of Pratylenchus penetrans assessed as inhibition of mobility incubated for 168 hr followed by compound wash out measured after 24 hr; format: functional
[34] = system: Pratylenchus penetrans; experiment: Nematicidal activity against juvenile stage of Pratylenchus penetrans assessed as inhibition of mobility after 168 hr; format: functional
[35] = system: Meloidogyne incognita; experiment: Ovicidal activity against Meloidogyne incognita (root-knot nematode) assessed as egg hatching at 1 mg/mL after 24 hr (reference value: 3%); format: functional
[36] = Stability of the compound assessed as conversion of N-oxide to free base at 5 mg/mL after 24 to 168 hr by thin layer chromatographic analysis under UV light and hot temperature; format: physicochemical
[37] = Stability of the compound assessed as apperance of pyrroles at 5 mg/mL after 166 hr by thin layer chromatographic analysis under hot temperature; format: physicochemical
[38] = Stability of the compound assessed as apperance of new pyrrolizidine alkaloids at 5 mg/mL after 166 hr by thin layer chromatographic analysis under hot temperature; format: physicochemical
[39] = Stability of the compound assessed as apperance of pyrroles at 5 mg/mL after 24 hr by thin layer chromatographic analysis under hot temperature; format: physicochemical
[40] = Stability of the compound assessed as apperance of new pyrrolizidine alkaloids at 5 mg/mL after 24 hr by thin layer chromatographic analysis under cold temperature; format: physicochemical
[41] = Stability of the compound assessed as conversion of free base to N-oxide at 5 mg/mL after 24 to 168 hr by thin layer chromatographic analysis under UV light and cold temperature; format: physicochemical
[42] = Stability of the compound assessed as conversion of free base to N-oxide at 5 mg/mL after 24 to 168 hr by thin layer chromatographic analysis under cold temperature; format: physicochemical
[43] = Stability of the compound assessed as apperance of new pyrrolizidine alkaloids at 5 mg/mL after 24 hr by thin layer chromatographic analysis under hot temperature; format: physicochemical
[44] = Stability of the compound assessed as conversion of free base to N-oxide at 5 mg/mL after 24 to 168 hr by thin layer chromatographic analysis under hot temperature; format: physicochemical
[45] = Stability of the compound assessed as conversion of free base to N-oxide at 5 mg/mL after 24 to 168 hr by thin layer chromatographic analysis under UV light and hot temperature; format: physicochemical
[46] = Stability of the compound assessed as apperance of new pyrrolizidine alkaloids at 5 mg/mL after 166 hr by thin layer chromatographic analysis under cold temperature; format: physicochemical

`C/C=C(/C)C(=O)O[C@H]1CCN2CC=C(COC(=O)[C@](O)([C@H](C)OC)C(C)(C)O)[C@H]12` [LASIOCARPINE] gave an MIC50 [1] of 3800 µg/mL (≈ 9.23 mM), an MIC50 [2] of 500 µg/mL (≈ 1.22 mM) and an MIC50 [3] of 1000 µg/mL (≈ 2.43 mM). For the same compound, the MIC50 [4] was 1000 µg/mL (≈ 2.43 mM), the MIC50 [5] was “inactive” and the MIC50 [6] was “inactive”.
With `C[C@H]1C(=O)O[C@@H]2CC[N+]3([O-])CC=C(COC(=O)[C@](C)(O)[C@]1(C)O)[C@H]23` (stereo not given in full) [MONOCROTALINE N-OXIDE] the Stability [7] was “Stable”, the Repellency [8] was 95% and the MIC50 [1] was 700 µg/mL (≈ 2.05 mM). The Stability [9] was “Stable”, the Repellency [10] was 51% and the MIC50 [11] was “inactive”. For the same compound, the Stability [12] was “Stable”, the Stability [13] was “Stable” and the Stability [14] was “Stable”. For the same compound, the Repellency [15] was 90%, the MIC50 [16] was “inactive” and the Repellency [17] was 56%. For the same compound, the Repellency [18] was 100%, the MIC50 [2] was “inactive” and the Stability [19] was “Stable”. For the same compound, the MIC50 [20] was 21200 µg/mL (≈ 62.1 mM), the MIC50 [3] was 37100 µg/mL (≈ 109 mM) and the MIC50 [21] was “inactive”. For the same compound, the Stability [22] was “Stable”, the Repellency [23] was 89% and the Stability [24] was “Stable”. For the same compound, the Repellency [25] was 52%, the Activity [26] was 16% and the MIC50 [4] was “inactive”. The Repellency [27] was 54%, the Stability [28] was “Stable” and the MIC50 [29] was 17500 µg/mL (≈ 51.3 mM). For the same compound, the Stability [30] was “Stable”, the MIC50 ([31]; Pellioditis hermaphrodita) was 13700 µg/mL (≈ 40.1 mM) and the Stability [32] was “Stable”. The MIC50 [5] was “inactive”, the MIC50 [33] was “inactive” and the MIC50 [6] was “inactive”. The MIC50 [34] was “inactive”, the Activity [35] was 7% and the Stability [36] was “Stable”.
With `C[C@H]1C(=O)O[C@@H]2CCN3CC=C(COC(=O)[C@](C)(O)[C@]1(C)O)[C@H]23` [MONOCROTALINE] the Stability [7] was “Unstable”, the Repellency [8] was 92% and the MIC50 [1] was 2000 µg/mL (≈ 6.15 mM). The Stability [37] was “Unstable”, the Repellency [10] was 52% and the MIC50 [11] was “inactive”. For the same compound, the Stability [38] was “Unstable”, the Stability [14] was “Unstable” and the Repellency [15] was 49%. For the same compound, the Stability [39] was “Stable”, the MIC50 [16] was “inactive” and the Repellency [17] was 52%. For the same compound, the Stability [40] was “Stable”, the Repellency [18] was 93% and the MIC50 [2] was 300 µg/mL (≈ 0.922 mM). For the same compound, the Stability [41] was “Stable”, the MIC50 [20] was 150 µg/mL (≈ 0.461 mM) and the MIC50 [3] was 1700 µg/mL (≈ 5.22 mM). The MIC50 [21] was 25900 µg/mL (≈ 79.6 mM), the Repellency [23] was 45% and the Stability [24] was “Unstable”. For the same compound, the Stability [42] was “Stable”, the Repellency [25] was 51% and the Stability [43] was “Stable”. The Activity [26] was 29%, the MIC50 [4] was 400 µg/mL (≈ 1.23 mM) and the Repellency [27] was 55%. The Stability [28] was “Unstable”, the Stability [44] was “Stable” and the Stability [45] was “Stable”. For the same compound, the MIC50 [31] was “inactive”, the MIC50 [5] was 31500 µg/mL (≈ 96.8 mM) and the MIC50 [33] was 5800 µg/mL (≈ 17.8 mM). For the same compound, the Stability [46] was “Unstable”, the MIC50 [6] was “inactive” and the MIC50 [34] was 1800 µg/mL (≈ 5.53 mM). It also gave an Activity [35] of 2%.
In the case of `C/C=C1/C[C@@H](C)[C@@](C)(O)C(=O)OCC2=CC[N+]3([O-])CC[C@@H](OC1=O)[C@@H]23` (stereo not given in full) [SENECIONINE N-OXIDE], the MIC50 [1] is reported as 3400 µg/mL (≈ 9.68 mM), the MIC50 [2] is reported as 2900 µg/mL (≈ 8.25 mM) and the MIC50 [3] is reported as “inactive”. The MIC50 [4] was “inactive”, the MIC50 [5] was “inactive” and the MIC50 [6] was 7200 µg/mL (≈ 20.5 mM).
